Structures are written as SMILES. Calls of active or inactive are those of the source. The rule behind the calls is not given here.

Consider 10 molecules from ChEMBL document CHEMBL3399935, “Structure-activity relationships of benzhydrol derivatives based on 1'-acetoxychavicol acetate (ACA) and their inhibitory activities on multiple myeloma cell growth via inactivation of the NF-κB pathway” (Bioorg Med Chem, 2015).

Experiment [1] has as its system HL-60. Description: Cytotoxicity against human HL60 cells assessed as growth inhibition at 10 uM after 3 days. It is filed as functional, cell-based.
Experiment [2] is described as follows: Cytotoxicity against human HL60 cells assessed as growth inhibition after 3 days. The format is functional, cell-based. The following applies: HL-60, 72 h.
In experiment [3] the target is T1, Nuclear factor NF-kappa-B complex (Homo sapiens) (UniProt Q00653+P19838+Q04206). Description: Inhibition of NF-kappaB in human IM9 cells assessed as inhibition of nuclear translocation at 10 uM after 30 mins by NF-kappaB (p65) transcription factor assay. It is filed as cell-based. The following applies: IM-9.
T1 sequence (P19838 whole entry, looked up): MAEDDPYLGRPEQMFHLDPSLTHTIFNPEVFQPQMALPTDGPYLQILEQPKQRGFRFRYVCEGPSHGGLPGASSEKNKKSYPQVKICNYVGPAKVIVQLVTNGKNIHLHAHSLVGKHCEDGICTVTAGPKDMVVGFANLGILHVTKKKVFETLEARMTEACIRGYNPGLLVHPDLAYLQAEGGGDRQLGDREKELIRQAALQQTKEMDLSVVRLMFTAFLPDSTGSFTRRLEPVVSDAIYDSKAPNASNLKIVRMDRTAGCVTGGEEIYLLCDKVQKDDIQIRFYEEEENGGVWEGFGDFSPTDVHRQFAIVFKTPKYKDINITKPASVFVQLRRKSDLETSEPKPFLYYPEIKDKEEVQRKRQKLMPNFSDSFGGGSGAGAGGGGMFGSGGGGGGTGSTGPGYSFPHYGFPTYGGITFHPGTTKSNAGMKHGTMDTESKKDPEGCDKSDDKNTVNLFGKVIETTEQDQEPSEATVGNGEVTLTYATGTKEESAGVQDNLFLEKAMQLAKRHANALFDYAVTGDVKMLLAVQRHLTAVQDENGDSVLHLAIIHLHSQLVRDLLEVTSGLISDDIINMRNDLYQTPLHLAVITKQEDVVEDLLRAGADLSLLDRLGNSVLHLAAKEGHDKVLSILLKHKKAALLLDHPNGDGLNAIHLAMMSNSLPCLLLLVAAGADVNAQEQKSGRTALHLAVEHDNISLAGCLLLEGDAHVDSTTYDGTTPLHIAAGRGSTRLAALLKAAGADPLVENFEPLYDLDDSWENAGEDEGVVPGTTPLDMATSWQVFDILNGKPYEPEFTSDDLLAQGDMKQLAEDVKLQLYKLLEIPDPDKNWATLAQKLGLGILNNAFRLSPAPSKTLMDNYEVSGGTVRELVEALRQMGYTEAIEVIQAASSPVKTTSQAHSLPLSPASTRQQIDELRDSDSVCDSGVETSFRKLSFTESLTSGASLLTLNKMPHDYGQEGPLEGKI
T1 sequence (Q00653 whole entry, looked up): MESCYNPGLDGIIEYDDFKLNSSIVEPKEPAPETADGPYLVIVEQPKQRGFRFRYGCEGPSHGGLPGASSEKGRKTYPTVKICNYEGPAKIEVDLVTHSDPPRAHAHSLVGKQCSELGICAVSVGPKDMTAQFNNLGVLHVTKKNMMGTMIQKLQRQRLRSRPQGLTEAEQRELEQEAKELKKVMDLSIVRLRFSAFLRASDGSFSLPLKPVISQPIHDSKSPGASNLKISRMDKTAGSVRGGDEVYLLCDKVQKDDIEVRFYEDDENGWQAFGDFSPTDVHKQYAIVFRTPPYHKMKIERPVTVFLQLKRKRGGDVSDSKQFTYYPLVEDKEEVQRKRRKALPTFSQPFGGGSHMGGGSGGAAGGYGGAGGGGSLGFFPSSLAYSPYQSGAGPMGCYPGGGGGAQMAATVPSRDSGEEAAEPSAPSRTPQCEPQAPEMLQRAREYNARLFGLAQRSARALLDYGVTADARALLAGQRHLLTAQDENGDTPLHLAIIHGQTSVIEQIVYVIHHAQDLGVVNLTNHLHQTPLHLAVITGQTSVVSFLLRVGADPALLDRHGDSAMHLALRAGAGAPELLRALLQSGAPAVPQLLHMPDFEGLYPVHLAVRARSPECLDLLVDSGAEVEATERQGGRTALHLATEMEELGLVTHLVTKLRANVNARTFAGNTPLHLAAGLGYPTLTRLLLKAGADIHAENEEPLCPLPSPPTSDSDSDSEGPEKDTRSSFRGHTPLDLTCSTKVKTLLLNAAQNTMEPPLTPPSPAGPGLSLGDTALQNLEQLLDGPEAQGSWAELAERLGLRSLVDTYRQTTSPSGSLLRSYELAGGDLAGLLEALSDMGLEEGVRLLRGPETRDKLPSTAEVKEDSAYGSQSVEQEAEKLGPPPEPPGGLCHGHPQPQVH
T1 sequence (Q04206 whole entry, looked up): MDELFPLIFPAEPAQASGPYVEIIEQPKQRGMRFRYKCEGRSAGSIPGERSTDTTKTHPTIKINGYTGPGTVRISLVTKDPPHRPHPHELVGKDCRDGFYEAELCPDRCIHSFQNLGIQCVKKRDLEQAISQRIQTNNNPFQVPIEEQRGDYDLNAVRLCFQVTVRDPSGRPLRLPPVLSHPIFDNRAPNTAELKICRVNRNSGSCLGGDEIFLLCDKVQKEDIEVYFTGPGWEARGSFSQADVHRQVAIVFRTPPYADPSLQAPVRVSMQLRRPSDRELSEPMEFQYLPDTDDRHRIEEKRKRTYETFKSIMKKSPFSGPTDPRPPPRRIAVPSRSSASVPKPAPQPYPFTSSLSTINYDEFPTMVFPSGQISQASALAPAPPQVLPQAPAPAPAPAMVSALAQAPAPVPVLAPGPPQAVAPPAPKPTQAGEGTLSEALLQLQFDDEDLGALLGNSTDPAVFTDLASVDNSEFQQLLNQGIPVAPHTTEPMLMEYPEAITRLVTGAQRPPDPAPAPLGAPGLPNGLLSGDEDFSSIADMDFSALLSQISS
A short description of experiment [4]: Cytotoxicity against human IM9 cells assessed as growth inhibition after 3 days. The format is functional, cell-based. To be noted: IM-9, 72 h.
In experiment [5] the target is T1, Nuclear factor NF-kappa-B complex (Homo sapiens). Briefly: Inhibition of NF-kappaB in human IM9 cells assessed as inhibition of nuclear translocation at 1 uM after 30 mins by NF-kappaB (p65) transcription factor assay. It is filed as cell-based. To be noted: IM-9.
Experiment [6] deals with IM-9. Briefly: Cytotoxicity against human IM9 cells assessed as growth inhibition at 10 uM after 3 days. It is filed as functional, cell-based.

By inhibition is commonly meant how much of the control response was suppressed. Consider `CC(=O)NC(c1ccccc1)c1ccc(OC(C)=O)cc1` (stereo not given), for which the inhibition result in experiment [1] was “inactive”.
As usually defined, the IC50 is the concentration at which inhibition is half-maximal. Consider `CC(=O)Oc1ccc2c(c1)CCc1ccccc1C2OC(C)=O` (stereo not given), for which the IC50 in experiment [2] stood at 2800 nM.
For `CC(=O)Nc1ccc(C(OC(C)=O)c2ccccc2)cc1` (stereo not given), the inhibition result in experiment [1] was “inactive”.
Take `C=C[C@H](OC(C)=O)c1ccc(OC(C)=O)cc1` [1'-ACETOXYCHAVICOL ACETATE]: the values for the inhibition in experiment [3] and in experiment [5] were 70% and 0%, respectively. Besides, the half-inhibitory concentration (IC50) in experiment [4] came to 2100 nM; in experiment [2], 2000 nM.
In the case of `CC(=O)Oc1ccc2c(c1)-c1ccccc1C2OC(C)=O` (stereo not given), the inhibition entry in experiment [3] and in experiment [6] was “inactive” throughout. Also, in experiment [2], the IC50 is above 10000 nM.
Regarding `CC(=O)Oc1ccc(C(OC(C)=O)c2cccc3ccccc23)cc1` (stereo not given), the IC50 in experiment [2] stood at 290 nM.
Same read-out and setting: then `CC(=O)Oc1ccc(C(OC(C)=O)c2cc(-c3ccccc3)cc(-c3ccccc3)c2)cc1` (stereo not given), with 1100 nM.
Still for that read-out and setting: the same measure for `CC(=O)Oc1ccc(C(OC(C)=O)c2ccc3ccccc3c2)cc1` (stereo not given): 2200 nM.
With `CC(=O)Oc1ccc(C(OC(C)=O)c2c3ccccc3cc3ccccc23)cc1` (stereo not given), the inhibition in experiment [3] came out at 85%; in experiment [5], 32%. For the same molecule, the IC50 was determined as 230 nM in experiment [4] and 120 nM in experiment [2].
For the molecule `CC(=O)Oc1ccc(C(OC(C)=O)c2ccccc2)cc1` (stereo not given), in experiment [3], the inhibition was 61%. Further, the values for the IC50 in experiment [4] and in experiment [2] were 2500 nM and 3500 nM, respectively.
